Assay results from patent US12213480B2, “Biocidal formulation” (For Spills Ltd., priority 2018, dated 2025).

Tests used:
Assay in all cases: Suspension test of biocide with or without perlite, 1 minute contact
[1] = test system: Pseudomonas aeruginosa ATCC 15442
[2] = test system: Aspergillus brasiliensis ATCC 16404
[3] = test system: Staphylococcus aureus ATCC 6538

| Structure (SMILES) | R reduction in viability [1] | Vc viable count ([1]; dilution −1, duplicate plates) | Vc viable count ([1]; dilution −2, duplicate plates) | Vc viable count ([1]; dilution −3, duplicate plates) | R reduction in viability [2] | Vc viable count ([2]; dilution N, duplicate plates) | Vc viable count ([2]; dilution −1, duplicate plates) | Vc viable count ([2]; dilution −2, duplicate plates) | Vc viable count ([2]; dilution −3, duplicate plates) | R reduction in viability [3] | Vc viable count ([3]; dilution −1, duplicate plates) | Vc viable count ([3]; dilution −2, duplicate plates) |
| --- | --- | --- | --- | --- | --- | --- | --- | --- | --- | --- | --- | --- |
| CC1(C)C(=O)N(Cl)C(=O)N1Br [BDCMH] | 1.00 Log 10 | >330; >330 cfu | >330; >330 cfu | >330; >330 cfu | −0.01 Log 10 | >165; >165 cfu | >165; >165 cfu | >165; >165 cfu | >165; >165 cfu | 1.92 Log 10 | >330; >330 cfu | >330; >330 cfu |
| O=c1nc([O-])n(Cl)c(=O)n1Cl.[Na+] [Sodium Dichloroisocyanurate, sodium dichloroisocyanurate] | 3.71 Log 10 | – | – | – | 2.84 Log 10 | >165; >165 cfu | – | – | – | >6.23 Log 10 | – | – |
